Laboratory results from US20240317826A1, “COMPOSITIONS AND METHODS FOR TREATING AND/OR I[…] AGENT FOR TREATING HIV-1 INFECTIONS” (priority 2021, published 2024).
Where no end group is shown, it is not given here.

What was measured:
[1] = target: T1, IN-TAR RNA interaction (Human immunodeficiency virus type 1 group M subtype B, UniProt P04585); experiment: Alpha interaction assay: effect of stapled peptides on IN-TAR RNA interaction; type: binding, HIV-1; conditions: in vitro
T1 construct: made in house; host or cells: bacteria (E. coli inferred from the pGEX vector)
Description: (§1) FIG. 8A-FIG. 8D show quantitative alpha interaction assay to determine the effect of stapled peptides on the interaction of IN and IN-CTD with INI1 and INI1183-304 or TAR RNA. […] Fixed concentrations of GST-IN, 6His-INI1, and TAR RNA were incubated with increasing concentration of stapled peptides and the interaction was detected as Alpha Score. The IC50 values were determined by fitting the data to a four-parameter dose-response curve using Graph Pad prism. All the graphs represent the average of three independent experiments (Mean+/−SEM).
(§2) AlphaScreen proximity assay to detect the protein-protein and protein-RNA interactions. AlphaScreen assay was carried out using PerkinElmer Alpha-Lisa-6His Acceptor beads (Catalogue #AL128C), Alpha-Screen-GST donor beads (Catalogue #6765300), GST-tagged and His-tagged proteins for protein-protein interactions; and Alpha-Screen Streptavidin donor beads (Catalogue #6760002 S), Alpha-Lisa-GST acceptor beads (Catalogue #AL110C), Biotin-labeled RNA and GST-tagged proteins for protein-RNA interactions. The reaction was carried out according to the manufacturer's protocol in a reaction buffer contacting (25 mM HEPES pH 7.4, 100 mM NaCl (or 500 mM NaCl), 1 mM DTT, 1 mM MgCl2 and BSA 1 mg ml/ml). The mixture of proteins or protein and RNA were incubated for 1 hr at room temperate with shaking in a multi micro-plate shaker and then 20 ag ml/ml accepter beads were added and incubated for additional 1 h with shaking. Finally, 20 ag ml^−1 of donor beads were added and further incubated for 1 hr. The Alpha score readings were measured using Alpha-compatible Envision 2105 multi-plate reader (Perkin-Elmer). All the experiments related to this method were carried out 3 to 5 times and data were analyzed by using Graph Pad Prism 9 version 9.0.0 (GraphPad Software, CA). The RNA sequences used in this assay are listed in the Table 6d and were obtained from Integrated DNA technology.
(§3) These peptides were tested for their ability to disrupt the interaction between IN-INI1 and IN-TAR RNA in vitro.

[2] = target: T2, IN-INI1 interaction (Human immunodeficiency virus type 1 group M subtype B, UniProt P04585); experiment: Alpha interaction assay: effect of stapled peptides on IN-INI1 interaction; type: binding, HIV-1; conditions: in vitro
T2 construct: made in house; host or cells: bacteria (E. coli inferred from the pGEX vector)
Description: as §1, §2, §3

Substance: lys-Leu-Met-Thr-Pro-Glu-R8-Met-Phe-Glu-Ile-Leu-S5-Cys-Asp-Leu-Asn [SP39]
- IC50, inhibition of IN-TAR RNA interactions [1]: low nanomolar
- IC50, inhibition of IN-INI1 interactions [2]: low nanomolar

Substance: lys-Leu-Met-Thr-Pro-Glu-Met-Phe-Ser-Glu-Ile-Leu-Cys-Asp-Leu-Asn (KLMTPEMFSEILCDLN; not fully specified; printed as lys-Leu-Met-Thr-Pro-Glu-Met-Phe-Ser-Glu-Ile-Leu-Cys-Asp-Leu-Asn) [SP80, Linear peptide (without stapling) derived from Alpha helix 1 of INI1 Rpt-1 domain]
- inhibition of IN-TAR RNA interactions [1]: did not inhibit
- inhibition of IN-INI1 interactions [2]: did not inhibit
